Laboratory results as given in patent US20110207829A1, “CONTROL OF TERMITES, FIRE ANTS AND CARPENTER ANTS” (Bedoukian Research, Inc, priority 2008, published 2011).

Key:
[1] = system: Formosan subterranean termites; assay: Assay for Vapor Toxicity (1 liter bottles); format: in vivo, Coptotermes formosanus
Method: (§1) Formosan subterranean termites were collected from bucket traps placed in City Park,
(§2) New Orleans, La. Altogether five colonies designated 1314, 1559, 1732, 1743 and 1756 were used in the tests. After collection, the termites (primarily workers and soldiers) were transferred to plastic boxes with moist spruce slats. The boxes were stored in an incubator maintained at 28° C., 65% RH, and constant darkness. Termites were used within one month of their collection.
Assay for Vapor Toxicity. This test was conducted in 960 ml (approximately 1 liter) wide-mouth clear Qorpak™ (All-Pak, Inc.) bottles with PTFE lined caps. A 60 mm diameter glass Petri dish with a moist filter paper and 50 termite workers was placed at the bottom of each bottle. The test chemical was applied to a 1 cm diameter filter paper and suspended with an insect pin from the cap-liner. Each chemical was initially tested at 1 mg then at 0.1 and 0.5 mg. Since 0.1 and 0.5 mg doses caused very low and 100% mortality respectively, the final test was carried out at 0.25 mg. Each chemical was tested with different termite colonies and replicated three times. The bottles were placed in the incubator. Mortality was recorded after 1, 2 and 3 days by quickly taking the glass Petri dish with the termites out of the bottle (with a pair of long forceps) and replacing it after removing the dead workers.

[2] = system: Formosan subterranean termites; assay: Vapor Toxicity Under Subterranean Conditions (soil and wood); format: in vivo, Coptotermes formosanus; settings: for termites killed (vapor toxicity under subterranean conditions): 25 mg
Method: as §1, §2
Vapor Toxicity Under Subterranean Conditions. This test was also conducted in the
Qorpak™ bottles. A 35 by 40 by 7 mm piece of moist spruce was placed at the bottom of the bottle and covered with 40 g fine-sifted black soil. One hundred workers were released into each bottle and allowed to tunnel under the soil and into the wood. After 3 days, a test chemical was applied to a filter paper and suspended from the cap-liner. The chemicals were tested at a rate of 25 mg. […] The test was conducted with termites from 3 colonies and replicated 3 times.

carpenter ants = assay: Carpenter ant test in sealed jars; format: in vivo; settings: within 24 hours; one drop (approximately 25 to 30 mg) on filter paper in sealed jar
Method: One drop (approximately 25 to 30 mg) of test compound (l-linaloo , l-carvone, and Styralyl Alcohol,) was applied to a filter paper within sealed jars (16 oz glass jar, 3½ inch diameter, 3⅞ inch high with plastic lids) containing ten carpenter ants per replicate with there being five replicates. Five negative controls with no test compounds were also run. The l-linalool, l-carvone, and styralyl alcohol each provided 100% mortality to the carpenter ants within 24 hours while the control produced 6% mortality over the same 24 hour period.

[3] = system: Formosan subterranean termites; assay: Assay for Contact Toxicity (treated filter paper in Petri dishes); format: in vivo, Coptotermes formosanus; settings: 1 day; rate of 0.5 mg/liter

## C=C[C@](C)(O)CCC=C(C)C [l-linalool]
[1]; 1 day, 0.5 mg
  termites killed (vapor toxicity): 100%
[1]; 3 days, 0.25 mg
  termites killed (vapor toxicity): 70%
[2]; 2 days
  termites killed (vapor toxicity under subterranean conditions): 69%
Carpenter ants
  mortality to carpenter ants: 100%

## CC(C)=CCC/C(C)=C/CO [geraniol, reference compound]
[2]
  effectiveness against termites in soil and wood: totally ineffective

## CC(C)=CCCC(C)CC=O (stereo not drawn) [citronellal, reference compound]
[2]
  effectiveness against termites in soil and wood: totally ineffective

## CCC(C)(O)CCCC(C)C (stereo not drawn) [tetrahydrolinalool]
[2]; 2 days
  termites killed (vapor toxicity under subterranean conditions): 53%

## l-carvone
[1]; 1 day, 0.5 mg
  termites killed (vapor toxicity): 100%
[1]; 3 days, 0.25 mg
  termites killed (vapor toxicity): 95%
[2]; 2 days
  termites killed (vapor toxicity under subterranean conditions): 57%
[2]; one day
  termites killed (vapor toxicity under subterranean conditions): 37%
Carpenter ants
  mortality to carpenter ants: 100%

## CC(O)c1ccccc1 (stereo not drawn) [Styralyl Alcohol, alpha-methyl benzyl alcohol]
[3]
  termites killed (contact toxicity): 98%
[1]; 2 days, 0.25 mg/liter volume
  termites killed (vapor toxicity): 100%
[2]; time not given
  termites killed (vapor toxicity under subterranean conditions): 11%
Carpenter ants
  mortality to carpenter ants: 100%

## C=C(C)C1CC=C(C)C(O)C1 (mixture of isomers) [carveol, reference compound]
[2]
  effectiveness against termites in soil and wood: totally ineffective

## Cc1ccc(C(C)C)cc1 [p-cymene, reference compound]
[2]
  effectiveness against termites in soil and wood: totally ineffective
